Measured values from patent publication US11566231B2, “Physiology and pathophysiology of human gut: intestine-on-chip” (EMULATE, INC., priority 2017, dated 2023).

Columns and labels:
human PXR = details: human cells; cited from earlier work
IL-8 = assay: LPS-induced IL-8 production in Intestine-Chip; assay type: cell-based, human; details: LPS 100 μg/ml; Rifaximin 50 μg/ml; without stretch

In the case of `CO[C@H]1/C=C/O[C@@]2(C)Oc3c(C)c(O)c4c(O)c(c5c(nc6cc(C)ccn65)c4c3C2=O)NC(=O)/C(C)=C\C=C\[C@H](C)[C@H](O)[C@@H](C)[C@@H](O)[C@@H](C)[C@H](OC(C)=O)[C@@H]1C` [Rifaximin], the “expression of PXR-regulated genes, including CYP3A4 and MDR1” value (human PXR) is listed as “enhanced” and the IL-8 (IL-8) is listed as “decrease in IL-8”.
